Measured values: patent US6403594B1, “Benzopyran derivatives” (Recordati, S.A. Chemical and Pharmaceutical Company, priority 1999, dated 2002)
Where a name gives a salt, the structure may show the parent alone.

Tests used:
[1] = target: T1, 5HT1A-serotoninergic receptor (Homo sapiens, UniProt P08908); assay: Radioligand binding, cloned 5-HT1A-serotoninergic receptor in HeLa membranes ([3H]8-OH-DPAT); parameters: expressed in transfected cells; host or cells: HeLa; details: cloned human 5-HT1A receptor in HeLa membranes, mean Ki, read-out: Affinity for 5-HT1A receptor, cloned receptors (Ki)
T1 sequence (P08908 1-422): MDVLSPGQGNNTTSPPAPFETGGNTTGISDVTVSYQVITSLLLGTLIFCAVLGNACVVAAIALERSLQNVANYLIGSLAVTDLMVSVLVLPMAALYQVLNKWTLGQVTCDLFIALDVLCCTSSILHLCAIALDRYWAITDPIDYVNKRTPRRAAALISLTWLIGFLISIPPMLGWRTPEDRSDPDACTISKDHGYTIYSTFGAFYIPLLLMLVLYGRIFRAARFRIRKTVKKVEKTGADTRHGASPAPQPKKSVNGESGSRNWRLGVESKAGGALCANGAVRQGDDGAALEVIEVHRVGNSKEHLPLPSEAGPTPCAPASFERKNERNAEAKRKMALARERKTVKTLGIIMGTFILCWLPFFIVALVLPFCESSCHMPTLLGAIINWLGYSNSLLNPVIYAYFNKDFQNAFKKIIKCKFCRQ
Experimental: HeLa cells were grown as monolayers in Dulbecco's Modified Eagle medium (DMEM) supplemented with 10% foetal calf serum and gentamicin (100 μg/mL), 5% CO2, at 37° C. The cells were detached from the growth flask at 95% confluence by a cell scraper and were lysed in ice-cold Tris-5-mM and EDTA-5-mM buffer (pH 7.4). The homogenates were centrifuged at 40000×g×20 minutes and the membranes were resuspended in a small volume of ice-cold buffer containing Tris 5 mM and EDTA 5 mM (pH 7.4), and immediately frozen and stored at −70° C. until use.
Non-specific binding was determined in the presence of 10 μM 5-HT. The incubation was stopped by addition of ice-cold Tris buffer and rapid filtration through 0.2% polyethyleneimine-pretreated Schleicher & Schuell filters.
(§1) Data were expressed as mean Ki.

[2] = target: T2, α1d-adrenoceptor (recombinant) (Homo sapiens, UniProt P25100); assay: Radioligand binding, cloned α1d-adrenoceptor ([3H]prazosin); details: read-out: Affinity for recombinant α1d-adrenoceptor, cloned receptors (Ki)
T2 sequence (P25100 1-572): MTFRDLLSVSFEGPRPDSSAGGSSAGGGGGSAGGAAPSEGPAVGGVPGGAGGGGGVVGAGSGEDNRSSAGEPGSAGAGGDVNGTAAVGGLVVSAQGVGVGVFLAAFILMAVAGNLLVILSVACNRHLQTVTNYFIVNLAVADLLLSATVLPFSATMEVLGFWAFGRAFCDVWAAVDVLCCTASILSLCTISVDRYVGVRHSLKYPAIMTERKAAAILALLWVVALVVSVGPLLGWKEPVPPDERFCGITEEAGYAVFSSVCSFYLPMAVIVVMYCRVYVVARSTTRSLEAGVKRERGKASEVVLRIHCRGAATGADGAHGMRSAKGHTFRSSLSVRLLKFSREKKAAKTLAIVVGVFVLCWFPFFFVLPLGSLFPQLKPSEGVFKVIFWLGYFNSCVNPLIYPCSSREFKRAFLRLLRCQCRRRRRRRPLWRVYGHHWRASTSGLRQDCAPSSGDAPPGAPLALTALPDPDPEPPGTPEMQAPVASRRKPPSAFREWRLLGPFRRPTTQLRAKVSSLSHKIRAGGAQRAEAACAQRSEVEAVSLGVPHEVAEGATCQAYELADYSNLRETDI
Experimental: (§2) Determination of affinity for cloned subtypes of α1-adrenoceptor subtypes was performed in membranes from cells transfected by electroporation with DNA expressing the genes encoding each α1-adrenoceptor subtype.
(§3) Non-specific binding was determined in the presence of 10 μM phentolamine.
(§4) Incubation was stopped by addition of ice-cold Tris buffer and rapid filtration through 0.2% polyethyleneimine-pretreated Schleicher & Schuell GF52 filters.
as §1

[3] = target: T3, α1a-adrenoceptor (recombinant) (Homo sapiens, UniProt P35348); assay: Radioligand binding, cloned α1a-adrenoceptor ([3H]prazosin); details: read-out: Affinity for recombinant α1a-adrenoceptor, cloned receptors (Ki)
T3 construct: expressed in transfected cells
T3 sequence (P35348 1-466): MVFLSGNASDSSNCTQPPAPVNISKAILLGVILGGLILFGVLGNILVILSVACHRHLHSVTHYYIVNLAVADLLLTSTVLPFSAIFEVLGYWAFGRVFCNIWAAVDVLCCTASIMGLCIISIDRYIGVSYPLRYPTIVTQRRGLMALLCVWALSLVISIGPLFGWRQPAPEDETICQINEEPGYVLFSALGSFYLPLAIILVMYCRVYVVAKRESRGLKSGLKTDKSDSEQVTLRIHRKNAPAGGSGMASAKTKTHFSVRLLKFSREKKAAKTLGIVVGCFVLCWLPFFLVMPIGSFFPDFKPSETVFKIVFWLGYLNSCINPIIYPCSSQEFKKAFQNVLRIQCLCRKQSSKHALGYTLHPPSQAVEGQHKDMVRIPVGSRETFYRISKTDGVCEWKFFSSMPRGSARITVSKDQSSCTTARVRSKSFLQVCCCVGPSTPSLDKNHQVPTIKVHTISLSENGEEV
Experimental: as §2, §3, §4, §1

[4] = target: T4, α1b-adrenoceptor (recombinant) (Homo sapiens, UniProt P35368); assay: Radioligand binding, cloned α1b-adrenoceptor ([3H]prazosin); details: read-out: Affinity for recombinant α1b-adrenoceptor, cloned receptors (Ki)
T4 construct: expressed in transfected cells
T4 sequence (P35368 1-520): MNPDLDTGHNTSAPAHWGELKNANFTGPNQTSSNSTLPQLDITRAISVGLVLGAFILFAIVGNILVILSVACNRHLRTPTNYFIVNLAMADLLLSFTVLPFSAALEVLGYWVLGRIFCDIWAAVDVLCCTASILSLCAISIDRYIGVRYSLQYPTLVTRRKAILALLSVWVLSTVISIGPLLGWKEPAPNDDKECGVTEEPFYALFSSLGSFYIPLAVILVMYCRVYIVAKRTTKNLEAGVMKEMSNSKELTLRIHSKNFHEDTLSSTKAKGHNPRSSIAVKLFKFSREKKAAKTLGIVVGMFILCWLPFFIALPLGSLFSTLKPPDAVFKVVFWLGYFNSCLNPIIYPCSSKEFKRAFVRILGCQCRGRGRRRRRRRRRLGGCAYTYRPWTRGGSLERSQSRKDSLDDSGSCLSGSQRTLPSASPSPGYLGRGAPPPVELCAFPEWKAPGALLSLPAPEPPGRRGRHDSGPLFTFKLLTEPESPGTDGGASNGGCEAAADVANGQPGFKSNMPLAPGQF
Experimental: as §2, §3, §4, §1

[5] = target: T5, α1L adrenoceptor (Oryctolagus cuniculus, UniProt O02824); assay: Functional antagonism of noradrenaline-induced contractions of rabbit aorta pretreated with chloroethylclonidine; format: biochemical; details: NA-induced contractions of rabbit aorta pretreated with chloroethylclonidine
T5 sequence (O02824 1-466): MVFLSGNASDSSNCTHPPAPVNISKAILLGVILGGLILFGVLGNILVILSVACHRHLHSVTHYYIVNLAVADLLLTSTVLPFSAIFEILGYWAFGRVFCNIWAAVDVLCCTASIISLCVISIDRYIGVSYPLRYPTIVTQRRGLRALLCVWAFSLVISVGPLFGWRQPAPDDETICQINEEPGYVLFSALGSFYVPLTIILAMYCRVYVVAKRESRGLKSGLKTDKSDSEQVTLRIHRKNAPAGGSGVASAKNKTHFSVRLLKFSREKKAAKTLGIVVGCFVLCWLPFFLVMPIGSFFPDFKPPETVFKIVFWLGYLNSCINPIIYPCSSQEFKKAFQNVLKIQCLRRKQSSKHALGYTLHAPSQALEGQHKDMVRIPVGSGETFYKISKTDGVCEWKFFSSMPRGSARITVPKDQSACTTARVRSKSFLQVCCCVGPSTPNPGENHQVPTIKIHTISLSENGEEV
Experimental: Adult male New Zealand rabbits were sacrificed by cervical dislocation. The aorta was removed, placed in Krebs-Henseleit buffer and dissected free of adhering tissue. […] Desmethylimipramine (0.1 μm) and corticosterone (1 μM) to block neuronal and extraneuronal uptake of NA, (±)-propranol (1 μM) to block β adrenoceptors and yohimbine (0.1 μM) to block α2 adrenoceptors, were added to the buffer.
The preparations were allowed to equilibrate for 60 minutes and then primed every thirty minutes with 10 μM NA for three times. The aortic rings were then incubated with the alkylating agent chloroethylclonidine (5×10^−5 M) for 30 minutes and then washed extensively three times (in 0.5 hours) before constructing the NA-concentration/response curve. After washout of NA and re-equilibration of the tissue (45 minutes), the drug to be tested was added and, after 30 minutes, a second NA-cumulative-concentration/response curve constructed.
Each antagonist concentration was tested using 2-3 aortic rings from different rabbits.
Dose ratios (i.e., the ratio between the concentrations of NA required to produce half-maximal response in the presence and in the absence of the test antagonist) were calculated for each concentration of the compounds. The logarithm of these dose ratio-1 was plotted against the logarithm of the compound concentrations (Schild plot) to evaluate the affinity constant Kb.
When only one or two concentrations of the test compounds were utilised, the apparent Kb value was calculated using the formula: Kb=[B]/(DOSE RATIO-1), where B is the antagonist concentration.

SMILES	Ki [1]	Ki [2]	Ki [3]	Ki [4]	Functional affinity for the α1L adrenoceptor subtype, pKb [5]
Cc1c(C(N)=O)oc2c(C(=O)NCCCN3CCN(c4ccc(F)cc4OCC(F)(F)F)CC3)cccc2c1=O [Example 7, 2-Carbamoyl-8-<3-{4-[4-fluoro-2-(2,2,2-trifluoroethoxy)phenyl]-1-piperazinyl}-propylcarbamoyl>-3-methyl-4-oxo-4H-1-benzopyran]	12.8 nM	6.43 nM	1.01 nM	–	–
Cc1c(C(N)=O)oc2c(C(=O)NCCCN3CCN(c4ccccc4OCC(F)(F)F)CC3)cccc2c1=O [Example 10, 2-Carbamoyl-8-<3-{4-[2-(2,2,2-trifluoroethoxy)phenyl]-1-piperazinyl}-propylcarbamoyl>-3-methyl-4-oxo-4H-1-benzopyran]	5.54 nM	6.53 nM	0.173 nM	14.3 nM	–
Cc1c(C(N)=O)oc2c(C(=O)NCCCN3CCN(c4cc(Cl)ccc4O)CC3)cccc2c1=O [Example 12, 2-Carbamoyl-8-{3-[4-(5-chloro-2-hydroxyphenyl)-1-piperazinyl]-propylcarbamoyl}-3-methyl-4-oxo-4H-1-benzopyran]	4.16 nM	9.96 nM	1.15 nM	2.02 nM	–
COc1ccc(OCC(F)(F)F)cc1N1CCN(CCCNC(=O)c2cccc3c(=O)c(C)c(C(N)=O)oc23)CC1 [Example 9, 2-Carbamoyl-8-<3-{4-[2-methoxy-5-(2,2,2-trifluoroethoxy)phenyl]-1-piperazinyl}-propylcarbamoyl>-3-methyl-4-oxo-4H-1-benzopyran]	–	467 nM	28.6 nM	94.7 nM	–
CNC(=O)c1oc2c(C(=O)NCCCN3CCN(c4cc(Cl)ccc4OC)CC3)cccc2c(=O)c1C [Example 5, 8-{3-[4-(5-Chloro-2-methoxyphenyl)-1-piperazinyl]propylcarbamoyl}-3-methyl-2-methylcarbamoyl-4-oxo-4H-1-benzopyran]	23.1 nM	2.05 nM	0.57 nM	2.39 nM	–
Cc1c(-c2ccccc2)oc2c(C(=O)NCCCN3CCN(c4cc(F)ccc4OCC(F)(F)F)CC3)cccc2c1=O [Example 20, 8-<3-{4-[5-Fluoro-2-(2,2,2-trifluoroethoxy)phenyl]-1-piperazinyl}-propylcarbamoyl>-3-methyl-4-oxo-2-phenyl-4H-1-benzopyran]	4.46 nM	0.32 nM	0.07 nM	3.54 nM	–
COc1ccc(OCC(F)(F)F)cc1N1CCN(CCCNC(=O)c2cccc3c(=O)c(C)c(-c4ccccc4)oc23)CC1 [Example 21, 8-<3-{4-[2-Methoxy-5-(2,2,2-trifluoroethoxy)phenyl]-1-piperazinyl}-propylcarbamoyl>-3-methyl-4-oxo-2-phenyl-4H-1-benzopyran]	257 nM	34.7 nM	2.54 nM	31.6 nM	–
Cc1c(C(N)=O)oc2c(C(=O)NCCCN3CCN(c4cc(Cl)ccc4OS(=O)(=O)C(F)(F)F)CC3)cccc2c1=O [Example 13, 2-Carbamoyl-8-{3-[4-(5-chloro-2-trifluoromethanesulphonyloxyphenyl)-1-piperazinyl]propylcarbamoyl}-3-methyl-4-oxo-4H-1-benzopyran]	31.4 nM	11 nM	1.61 nM	1 nM	–
Cc1c(-c2ccccc2)oc2c(C(=O)NCCCN3CCN(c4cc(Cl)ccc4OS(=O)(=O)C(F)(F)F)CC3)cccc2c1=O [Example 24, 8-{3-[4-(5-Chloro-2-trifluoromethanesulphonyloxyphenyl)-1-piperazinyl]-propylcarbamoyl}-3-methyl-4-oxo-2-phenyl-4H-1-benzopyran hydrochloride]	140 nM	33.7 nM	4.21 nM	7.8 nM	–
COc1ccc(Cl)cc1N1CCN(CCCNC(=O)c2cccc3c(=O)c(C)c(C(C)=O)oc23)CC1 [Example 2, 2-Acetyl-8-{3-[4-(5-chloro-2-methoxyphenyl)-1-piperazinyl]propylcarbamoyl}-3-methyl-4-oxo-4H-1-benzopyran]	12.3 nM	2.68 nM	0.32 nM	2.34 nM	–
COc1cc2nc(N3CCN(C(=O)C4CCCO4)CC3)nc(N)c2cc1OC (stereo not shown) [terazosin, reference compound]	–	2.4 nM	–	–	7.25
